Results taken from patent US6664249B1, “Bicyclic vasopressin agonists” (Ferring BV, priority 1999, dated 2003).

These compounds were tested on Brattleboro rat (assay: urine output in Brattleboro rats (model of vasopressin deficiency)). Settings: 1 mg/kg p.o. in methylcellulose, vs control animals.
Type: in vivo
Experimental: The Brattleboro rat is a recognised model for vasopressin deficiency (for a review see F D Grant, “Genetic models of vasopressin deficiency”, Exp. Physiol. 85, 203S-209S, 2000). […] Compounds of the invention were administered to Brattleboro rats (0.1-10 mg/kg p.o. in methylcellulose. Urine was collected hourly and volumes were compared with control animals. Animals had free access to food and water throughout the experiment. Representative results are given in the Table. Results for Desmopressin are given for comparison.

With CCOC(=O)CNC(=O)NCc1ccc(C(=O)N2CCCCc3ccccc32)cc1C [Example 5, 1-(4-[N-(2-Ethoxy-2-oxoethylcarbamoyl)aminomethyl]-3-methylbenzoyl)-2,3,4,5-tetrahydro-1H-1-benzazepine] as the compound, how does the “% inhibition of urine output (at 1 hour)” value read?
Its value is 74%.

Cc1cc(C(=O)N2CCCCc3ccccc32)ccc1CNC(=O)NCC(=O)O [Example 6, 1-(4-[N-(Carboxymethylcarbamoyl)aminomethyl]-3-methylbenzoyl)-2,3,4,5-tetrahydro-1H-1-benzazepine] was tested. Which “% inhibition of urine output (at 1 hour)” value did it give?
The value was 38%.

How did the “% inhibition of urine output (at 1 hour)” value turn out when Cc1cc(C(=O)N2CCCCc3ccccc32)ccc1CNC(=O)NCC(=O)N(C)C [Example 8, 1-(4-[N-(2-Dimethylamino-2-oxoethylcarbamoyl)aminomethyl]-3-methylbenzoyl)-2,3,4,5-tetrahydro-1H-1-benzazepine] was run?
Its value is 45-82%.

For Cc1cc(C(=O)N2CCCCc3ccccc32)ccc1CNC(=O)NCC(=O)N1CCCCC1 [Example 25, 1-(3-methyl-4-[N-(2-(1-piperidino)-2-oxoethylcarbamoyl)aminomethyl]benzoyl)-2,3,4,5-tetrahydro-1H-1-benzazepine], which “% inhibition of urine output (at 1 hour)” value is on record?
The value was 58%.
